Source: paper PMC10830420, “Structures, functions and adaptations of the human LINE-1 ORF2 protein” (Nature, 2023)
pIC50: −log10 of the molar value. “Also recorded” adds a separate entry of the source.

What was measured:
[1] = system: cytosolic RNA:DNA hybrids in L1-transfected HeLa and U2-OS cells; test: LINE-1 and RNA:DNA hybrid immunofluorescence; type: cell-based, human; details: 50 µM, added at the time of transfection, 24 h
Method: Constructs all include C-terminal 3C-3xFlag tag on ORF2p and are synthetic ORFeus-Hs[63] sequence except where L1RP is indicated (L1 retinitis pigmentosa locus, AF148856, pLD564[17]). Cells were fixed in methanol and stained 24 h post transfection with the indicated constructs. Images are representative from 4 independent experiments. D4T RTI treatment is 50 µM, added at the time of transfection.
Culture Collection ( AT CC); THP1-Dual and THP1- Dual KO-TREX1 cells were from InvivoGen. All cell lines were maintained at 37 °C and 5% CO2 and validated and tested for mycoplasma. All plasmids and affinity reagents are described in Supplementary Tables 4-5 , respectively and available from Addgene at https://www.addgene.org/browse/article/28243724/.
LINE-1 and RNA:DNA hybrid immunofluorescence […]
induced using 200 µM IPTG overnight at 16°C, purified by sequential Ni-NTA affinity, heparin affinity, and gel filtration, and the monodisperse fraction was concentrated to 7 mg/ml. 150,000 HeLa or U2OS cells were plated on 22 mm glass coverslips in 6-well dishes and transfected with 2 µg of plasmid DNA using Lipofectamine 3000 (Thermo) according to the manufacturer’s instructions, with or without 50 µM d4T. […]
Cells were lysed in ice cold RIPA buffer containing 1x protease inhibitor tablet (Thermo), centrifuged for 10 minutes, and clarified lysates were quantified by BCA assay. […]

[2] = biological target: T1, ORF2p core (Homo sapiens, UniProt O00370); test: Homogeneous time-resolved fluorescence (HTRF) ORF2p RT assay; type: biochemical; details: HTRF; NRTI NTPs
T1 construct: His6-MBP-3C-ORF2p (238-1061, ORFeus-Hs) in pET41; His6-MBP (3C protease site) (N, cleaved yes); made in house; host or cells: E. coli
Method: ORF2p core was preincubated with a template:primer containing a single site for the incorporation of a given nucleotide analogue. The primer/template sequence shown in the panel a illustrates the case of single incorporation of 3TC, with a single G for incorporation; the incoming template sequence for entecavir and carbovir has a single C, and for d4T a single A, each at position labeled “N”. Reactions were incubated for one minute at 37 °C with a 100 nM dNTP mixture and increasing concentrations of listed inhibitors. IC50 index, fold = IC50 (drug, µM) ÷ [dNTP] […] Fluorescein-labeled dNTPs (here, uracil-TP) are incorporated by ORF2p into a biotinylated primer, here shown against a poly(A) template. Detection is then achieved using FRET with a terbium cryptate labeled streptavidin, and the time-resolved technique and time-delayed emission from terbium cryptate reduces background from other fluorescent chemicals in the mix. In the presence of ORF2p RT inhibitors (RTIs), base incorporation is stopped and FRET signal is lost. […]
ORF2p reverse transcriptase activity assays […]
For HTRF RT assays157, 25 nM ORF2p core and 12. 5 nM t em plat e: primer was incubated at 25°C for 60 minutes
with 10 nM of fluorescein- 12- dUTP (Thermo), 1 µM each (dATP,dCTP,dGTP), and test compound in a 15 µL
reaction with buffer containing 50 mM Tris-HCl, 50 mM KCl, 10 mM MgCl2, 10 mM DTT, pH 8.1, and 1% final

Cc1cn([C@H]2C=C[C@@H](CO)O2)c(=O)[nH]c1=O [d4T, stavudine]
formation of cytosolic RNA:DNA hybrids [1]: ablated; also recorded: inhibited
pIC50 [2]: > 8.00
